Test results from US12391676B2 (H. LEE MOFFITT CANCER CENTER AND RESEARCH INSTITUTE, INC., priority 2018, dated 2025).
“Also recorded” adds a separate entry of the source. Read-outs that look alike come from different tables or passages of the source.

Key:
[1] = test system: UKE1 cells; experiment: Growth inhibition GI50, UKE1 cells; type: cell-based; conditions: UKE1, Table 2; read-out: GI50 (UKE1)
[2] = test system: UKE1 cells; experiment: Drug persistence of UKE1 cells under escalating drug concentration; type: cell-based
Description: UKE1 cells were incubated with DMSO, MA9-060, fedratinib, or ruxolitinib at their respective GI20 concentrations. Cell growth was compared to DMSO. Cells were passed back to the same density after counting. Drug concentration was doubled if growth was >90% of DMSO. Fold GI20 is plotted vs time, with drug persistence represented by upward steps of the lines. The final MA9-060, ruxolitinib, and fedratinib concentrations at the end of the experiment were 0.15, 0.6 and 2.4 uM, respectively. Fedratinib-treated cells lost complete viability after about 30 days (after 3 weeks in 2.4 uM).

[3] = target: JAK2 (Homo sapiens (Human), UniProt O60674); experiment: JAK2 IC50; type: biochemical; conditions: Table 2
Chain of JAK2 (O60674 whole entry): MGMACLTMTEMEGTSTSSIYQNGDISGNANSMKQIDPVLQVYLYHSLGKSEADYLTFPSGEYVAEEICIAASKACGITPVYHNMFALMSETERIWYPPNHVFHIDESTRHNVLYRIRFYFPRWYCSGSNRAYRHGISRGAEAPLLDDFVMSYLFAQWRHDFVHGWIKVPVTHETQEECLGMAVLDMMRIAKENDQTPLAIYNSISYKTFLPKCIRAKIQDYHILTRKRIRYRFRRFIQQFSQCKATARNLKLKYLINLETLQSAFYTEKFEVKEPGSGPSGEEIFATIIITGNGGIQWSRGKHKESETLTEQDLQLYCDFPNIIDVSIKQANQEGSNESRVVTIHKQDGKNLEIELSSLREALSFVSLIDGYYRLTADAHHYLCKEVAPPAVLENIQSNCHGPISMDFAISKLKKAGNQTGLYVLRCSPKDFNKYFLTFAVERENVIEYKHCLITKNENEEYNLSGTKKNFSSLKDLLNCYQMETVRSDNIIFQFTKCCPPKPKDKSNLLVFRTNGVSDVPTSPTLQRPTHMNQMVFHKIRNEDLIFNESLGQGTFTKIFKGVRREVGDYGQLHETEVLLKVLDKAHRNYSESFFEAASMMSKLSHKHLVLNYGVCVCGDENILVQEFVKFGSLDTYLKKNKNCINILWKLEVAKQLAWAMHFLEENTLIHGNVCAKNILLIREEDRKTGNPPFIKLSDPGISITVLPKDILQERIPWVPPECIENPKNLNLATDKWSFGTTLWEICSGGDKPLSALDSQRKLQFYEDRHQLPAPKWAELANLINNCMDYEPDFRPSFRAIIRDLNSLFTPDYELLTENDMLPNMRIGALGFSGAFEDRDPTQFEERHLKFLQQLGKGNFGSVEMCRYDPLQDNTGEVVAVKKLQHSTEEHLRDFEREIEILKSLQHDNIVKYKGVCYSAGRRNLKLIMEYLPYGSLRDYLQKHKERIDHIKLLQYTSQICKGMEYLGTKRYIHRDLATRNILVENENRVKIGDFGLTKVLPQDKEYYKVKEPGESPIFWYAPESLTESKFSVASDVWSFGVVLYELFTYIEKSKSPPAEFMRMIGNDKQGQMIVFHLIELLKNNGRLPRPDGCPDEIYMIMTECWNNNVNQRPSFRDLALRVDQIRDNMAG

[4] = test system: MM1.S cells; experiment: Antiproliferative activity, MM1.S cells; type: cell-based; conditions: Homo sapiens
Procedure, shortened: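 MM.1S and MV4-11 AML cells were treated with compounds; c-Myc levels served as biomarker after 6-12 hr treatment, and antiproliferative activity was measured after 48-72 hr treatment.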

[5] = target: T1, BRD4 (Homo sapiens (Human), UniProt O60885); experiment: BRD4 IC50; type: binding; conditions: Table 2
[6] = test system: primary human hematopoietic progenitor cells; experiment: CFU-G/M colony formation of primary patient cells; type: cell-based; conditions: colonies after 2 weeks
Description: (§1) Colony formation was determined after 2 weeks and is indicated relative to no drug (DMSO).

[7] = test system: PBMCs from a JAK2-V617F+ myelofibrosis patient; experiment: Epo-independent erythroid colony (EEC) formation of primary MPN patient cells; conditions: colonies after 2 weeks, relative to DMSO, compared with fedratinib and ruxolitinib
Description: as §1

[8] = test system: BaF3-JAK2-V617F-luciferase cells; conditions: for median survival (post-treatment start): treated for 14 days
Description: Vehicle control and MA9-060 were administered orally twice daily at the indicated doses to Balb/c mice injected with BaF3-JAK2-V617F-luciferase cells. Mice were imaged for luciferase activity before (Day 0) and after 7 days of treatment (Tx) (FIG. 3A) with the mean total flux from target cells shown in (FIG. 3B).

[9] = target: T1, BRD4; experiment: BRD4 DSF thermal shift (ΔTm); type: binding
[10] = test system: SET2 cells; experiment: Growth inhibition GI50, SET2 cells; type: cell-based; conditions: Homo sapiens, SET-2; Table 1 comments; unit printed only for the neighbouring values in the cell
[11] = Human microsome stability; type: in vitro ADME; conditions: Table 1 comments; meaning of % not stated
[12] = test system: BaF3-JAK2-VF cells; experiment: Growth inhibition GI50, BaF3-JAK2-VF cells; type: cell-based; conditions: Table 1 comments
[13] = Mouse microsome stability; type: in vitro ADME; conditions: Table 1 comments; meaning of % not stated
[14] = test system: MV4-11 AML cells; conditions: background, literature; read-out: IC50, proliferation of MV4-11 AML cells; cited from earlier work
[15] = test system: c-Myc; conditions: background, literature; cited from earlier work

SMILES: Cc1cnc(Nc2ccc(C3CCN(C)CC3)c(F)c2)nc1Nc1ccc(Cl)c(NS(=O)(=O)C(C)(C)C)c1 [MA9-060, N-(2-Chloro-5-((2-((3-fluoro-4-(1-methylpiperidin-4-yl)phenyl)amino)-5-methylpyrimidin-4-yl)amino)phenyl)-2-methylpropane-2-sulfonamide]
- GI50 [1]: 150 nM
- development of drug persistence ([2]; UKE1 cells started at GI20, concentration doubled if growth >90% of DMSO): do not develop drug persistence; also recorded: could not escape a low concentration
- final drug concentration at the end of the experiment ([2]; UKE1 cells, drug persistence experiment): 0.15 µM
- IC50 [3]: 3.3 nM
- GI50 ([4]; Table 2, read-out: GI50 (MM1S)): 43 nM
- IC50 [5]: 26 nM
- effect on CFU-G/M colony growth [6]: not affected; also recorded: Little effect
- inhibition of Epo-independent (neoplastic) erythroid colony (EEC) formation [7]: more effective than Fedratinib or Ruxolitinib; also recorded: superior to fedratinib and ruxolitinib
- median survival (post-treatment start) ([8]; 10 mg/kg orally twice daily): 19 days
- median survival (post-treatment start) ([8]; 25 mg/kg orally twice daily): 26 days
- toxicity ([8]; 25 mg/kg twice daily orally): No toxicity was detected
- median survival (post-treatment start) ([8]; 50 mg/kg orally twice daily): 31 days
- inhibition of BaF3-JAK2-V617F-luciferase cells in Balb/c mice ([8]; oral, twice daily, luciferase imaging): dose-dependent inhibition
- BRD4 DSF (ΔTm) ([9]; Table 2): 14.5 °C

SMILES: Cc1cnc(Nc2ccc(C3CCN(C)CC3)c(F)c2)nc1Nc1ccc(Cl)c(NS(=O)(=O)C(C)(C)C)c1 [drawing 9]
- IC50 ([4]; Table 1 comments): 43 nM
- GI50 [10]: 54 nM
- Human microsome [11]: 42.6%
- GI50 [12]: 28 nM
- Mouse microsome [13]: 100%
- DSF ΔTm ([9]; Table 1): 14.2 °C

SMILES: Cc1cnc(Nc2ccc(OCCN3CCCC3)cc2)nc1Nc1cccc(S(=O)(=O)NC(C)(C)C)c1 [TG101348]
- IC50 [14]: 79 nM
- downregulation of c-Myc in MM.1S cells [15]: strong downregulation
